The results in this text go back to ChEMBL document CHEMBL1141942, “Novel 7-methoxy-6-oxazol-5-yl-2,3-dihydro-1H-quinazolin-4-ones as IMPDH inhibitors” (Bioorg Med Chem Lett, 2005).

In brackets after ≈: the same amount, converted by molar mass.

In data set [1] the target is T1, Inosine-5'-monophosphate dehydrogenase 2 (Homo sapiens, UniProt P12268). Briefly: Inhibitory activity against IMPDH II.
A further data set has as its system PBMC. Briefly: Antiproliferative activity in PMBC. In kind it is functional, cell-based. The conditions noted are these: Homo sapiens.
Data set [2] is described as follows: Intrinsic clearance in human liver microsomes. In kind it is ADME, Microsome.
Data set [3] concerns the target T1, Inosine-5'-monophosphate dehydrogenase 2. The conditions noted are these: 10 uM.
Description: Inhibitory activity against IMPDH II at 10 uM
The nature of data set [4]: Solubility at pH 6.5. The conditions noted are these: buffer. It counts as physicochemical.

Regarding `COc1cc2c(cc1-c1cnco1)C(=O)N(C)C1(CCN(C(=O)C(C)(C)C)C1)N2` (stereo unspecified), the values for the IC50 (in data set [1]; in the data set with PBMC) were 94 nM and 540 nM, respectively. Besides, the microsomal CLint in data set [2] amounted to 46 µL/min/mg.
Consider `COC(=O)[C@H]1C[C@@]2(CN1C(=O)OC(C)(C)C)Nc1cc(OC)c(-c3cnco3)cc1C(=O)N2C`, for which the inhibition in data set [3] was 26%.
In data set [1], `COC(=O)[C@@H]1C[C@]2(CN1C(=O)OC(C)(C)C)Nc1cc(OC)c(-c3cnco3)cc1C(=O)N2C` showed an IC50 of 369 nM.
Take `CCOC(=O)N1CCC2(C1)Nc1cc(OC)c(-c3cnco3)cc1C(=O)N2C` (stereo unspecified): the IC50 in data set [1] was found to be 80 nM; in the data set with PBMC it was 1200 nM. For the same compound, the microsomal CLint in data set [2] was determined as 24 µL/min/mg.
The like results for `COc1cc2c(cc1-c1cnco1)C(=O)N(C)C1(CCN(C(=O)N(C)c3ccc(F)cc3F)C1)N2` (stereo unspecified) were, in that order, 51 nM, 1200 nM and 97 µL/min/mg.
`COc1cc2c(cc1-c1cnco1)C(=O)N(CCc1ccncc1)C(C)(C)N2`: the figures for the IC50 (in data set [1]; in the data set on PBMC) were 300 nM and 37000 nM, respectively.
The like results for `COc1cc2c(cc1-c1cnco1)C(=O)N(C)C(C)(/C=C/c1ccccc1)N2` (stereo unspecified) were, in that order, 49 nM and 3000 nM.
Regarding `COc1cc2c(cc1-c1cnco1)C(=O)N(C)C1(CCN(C(=O)N3CCCCC3)C1)N2` (stereo unspecified), the IC50 in data set [1] was found to be 68 nM; in the data set with PBMC it was 1800 nM. The microsomal CLint in data set [2] turned out to be 152 µL/min/mg.
As to `COc1cc2c(cc1-c1cnco1)C(=O)N(C)C1(CCOCC1)N2`, the figures for the IC50 (in data set [1]; with PBMC) were 526 nM and 11600 nM, respectively.
In the case of `COc1cc2c(cc1-c1cnco1)C(=O)N(C)C1(CCN(C(=O)N(C)OC)C1)N2` (stereo unspecified), the IC50 worked out at 79 nM in data set [1] and 1900 nM with PBMC. In data set [2], this compound gave a microsomal CLint of 38 µL/min/mg.
`COc1cc2c(cc1-c1cnco1)C(=O)N(C)C1(Cc3ccsc3C1)N2` (stereo unspecified): the IC50 in data set [1] came out at 96 nM; in the data set with PBMC, 1900 nM.
With `COC(=O)[C@H]1C[C@]2(CN1C(=O)OC(C)(C)C)Nc1cc(OC)c(-c3cnco3)cc1C(=O)N2C`, the figures for the IC50 (in data set [1]; in the data set on PBMC) were 35 nM and 1500 nM, respectively. For the same compound, in data set [2], the microsomal CLint was determined as 18 µL/min/mg.
In the case of `COc1cc2[nH]c(=O)n(C)c(=O)c2cc1-c1cnco1`, the concentration in solution in data set [4] (solubility) was 3 µg/mL (≈ 11 µM). The compound also displayed an IC50 in the data set on PBMC of 4000 nM.
Regarding `COc1cc2c(cc1-c1cnco1)C(=O)N(C)C1(CCN(C(=O)N(C(C)C)C(C)C)C1)N2` (stereo unspecified), the IC50 in data set [1] came to 71 nM; in the data set on PBMC, 70 nM. In data set [2], the microsomal CLint is 612 µL/min/mg.
For the compound `COc1cc2c(cc1-c1cnco1)C(=O)N(C)C1(CCCC1)N2`, the IC50 in data set [1] worked out at 328 nM; in the data set with PBMC, 8500 nM.
In the case of `COc1cc2c(cc1-c1cnco1)C(=O)N(C)C1(CCN(C(=O)N(C)c3ccccc3)C1)N2` (stereo unspecified), the IC50 in data set [1] stood at 64 nM; in the data set on PBMC it was 860 nM. Moreover, in data set [2], the microsomal CLint is 144 µL/min/mg.
For `CCN(CC)C(=O)N1CCC2(C1)Nc1cc(OC)c(-c3cnco3)cc1C(=O)N2C` (stereo unspecified), in data set [4], the solubility was 813 µg/mL (≈ 1970 µM). For the same compound, the values for the IC50 (in data set [1]; with PBMC) were 45 nM and 540 nM, respectively. In data set [2], this compound came in with a microsomal CLint of 92 µL/min/mg.
For the compound `COc1cc2c(cc1-c1cnco1)C(=O)N(C)C(C)(C)N2`, the concentration in solution in data set [4] (solubility) came to 77 µg/mL (≈ 268 µM). The IC50 in data set [1] is 192 nM; in the data set with PBMC it was 21000 nM.
`CCNC(=O)N1CCC2(C1)Nc1cc(OC)c(-c3cnco3)cc1C(=O)N2C` (stereo unspecified): the IC50 in data set [1] is 119 nM; with PBMC, 7200 nM. Moreover, the microsomal CLint in data set [2] came out at 11 µL/min/mg.
The like results for `COc1cc2c(cc1-c1cnco1)C(=O)N(C)C1(CCN(C(=O)Nc3ccccc3)C1)N2` (stereo unspecified) were, in that order, 393 nM, 16000 nM and 19 µL/min/mg.
In data set [1], `COC(=O)[C@@H]1C[C@@]2(CN1C(=O)OC(C)(C)C)Nc1cc(OC)c(-c3cnco3)cc1C(=O)N2C` registered an IC50 of 948 nM.
As for `COc1cc2c(cc1-c1cnco1)C(=O)N(C)C1(CCN(C(=O)OC(C)(C)C)C1)N2` (stereo unspecified), in data set [4], the solubility worked out at 101 µg/mL (≈ 244 µM). The IC50 was 104 nM in data set [1] and 970 nM in the data set with PBMC. This compound came in with a microsomal CLint in data set [2] of 42 µL/min/mg.

The term IC50 denotes the midpoint of a concentration-inhibition curve. The microsomal CLint is the capacity of the preparation to metabolise the compound, expressed as a volume cleared per time. What is called inhibition is the relative decrease from the control value, in per cent. As usually defined, the solubility is the concentration that dissolves in the medium under given conditions. Lower therefore signals little dissolved substance.
